According to PMC4476818, “Characterization of uronate dehydrogenases catalysing the initial step in an oxidative pathway” (Microbial Biotechnology, 2015):
Like-named read-outs stand apart in the source and are kept apart here.

Key:
UdhOg = system: T1, UdhOg; assay: NADH formation at […] nm; type: biochemical, Oceanicola granulosus
T1 construct: gene udh; N-terminal His-tag, tag kept; wild-type gene from genomic DNA, E. coli BL21(DE3); start MKKIVLT (from primer)

UdhFp = system: T2, UdhFp; assay: NADH formation at […] nm; type: biochemical, Fulvimarina pelagi
T2 construct: gene udh; N-terminal His-tag, tag kept; synthetic codon-optimized gene, E. coli BL21(DE3); start MLEKLLI (from primer)

purified protein [1] = substrate: NC(=O)c1ccc[n+]([C@@H]2O[C@H](COP(=O)(O)OP(=O)(O)OC[C@H]3O[C@@H](n4cnc5c(N)ncnc54)[C@H](O)[C@@H]3O)[C@@H](O)[C@H]2O)c1; assay: purified protein; type: biochemical, Agrobacterium fabrum; conditions: 50 mM potassium phosphate pH 8.0, 37°C, uronic acid co-substrate, varied: cofactor
purified protein [2] = substrate: NC(=O)c1ccc[n+]([C@@H]2O[C@H](COP(=O)(O)OP(=O)(O)OC[C@H]3O[C@@H](n4cnc5c(N)ncnc54)[C@H](O)[C@@H]3O)[C@@H](O)[C@H]2O)c1; assay: purified protein; type: biochemical, Pseudomonas syringae group genomosp. 3; conditions: 50 mM potassium phosphate pH 8.0, 37°C, uronic acid co-substrate, varied: cofactor
[3] = 50 mM Tris-HCl pH 8.0, 37°C, co-substrate NAD+, read-out: Tris-Buffer / Kinetic parameters / Km
[4] = 50 mM potassium phosphate pH 8.0, 37°C, uronic acid co-substrate, read-out: KPi-Buffer / Kinetic parameters / Km

With `O=C(O)[C@H]1OC(O)[C@H](O)[C@@H](O)[C@H]1O` (stereo partly shown) [Galacturonate] the Km (UdhOg; [3]) was 55000 ± 3000 µM and the Km (UdhFp; [3]) was 20 µM.

In the case of `O=C(O)[C@H]1OC(O)[C@H](O)[C@@H](O)[C@@H]1O` (stereo partly shown) [Glucuronate], the Km (UdhOg; [3]) is reported as 64000 ± 3000 µM and the Km (UdhFp; [3]) is reported as 200 ± 30 µM.

`O=C(O)[C@H]1OC(O)[C@@H](O)[C@@H](O)[C@@H]1O` (stereo partly shown) [Mannuronate] showed a Km (UdhFp; [3]) of 6400 ± 130 µM.

For `NC(=O)c1ccc[n+]([C@@H]2O[C@H](COP(=O)(O)OP(=O)(O)OC[C@H]3O[C@@H](n4cnc5c(N)ncnc54)[C@H](O)[C@@H]3O)[C@@H](O)[C@H]2O)c1` [NAD^+], the Km (UdhOg; [4]) was 400 ± 100 µM and the Km (UdhFp; [4]) was 200 ± 20 µM.

B1: UdhAt (Agrobacterium fabrum str. C58) (protein)
chain: MKRLLVTGAAGQLGRVMRERLAPMAEILRLADLSPLDPAGPNEECVQCDLADANAVNAMVAGCDGIVHLGGISVEKPFEQILQGNIIGLYNLYEAARAHGQPRIVFASSNHTIGYYPQTERLGPDVPARPDGLYGVSKCFGENLARMYFDKFGQETALVRIGSCTPEPNNYRMLSTWFSHDDFVSLIEAVFRAPVLGCPVVWGASANDAGWWDNSHLGFLGWKPKDNAEAFRRHITETTPPPDPNDALVRFQGGTFVDNPIFKQS
notes: N-terminal His-tag, tag kept; synthetic codon-optimized gene, E. coli BL21(DE3)
B1 gave a Km (purified protein [1]) of 100 ± 0 µM, a kcat (purified protein [1]) of 144 ± 14 s⁻¹ and a kcat/Km (purified protein [1]) of 1.08e+06 M⁻¹ s⁻¹.

B2: UdhPs (Pseudomonas syringae pv. tomato str. DC3000) (protein)
chain: MASAHTTQTPFNRLLLTGAAGGLGKVLRETLRPYSHILRLSDIAEMAPAVGDHEEVQVCDLADKDAVHRLVEGVDAILHFGGVSVERPFEEILGANICGVFHIYEAARRHGVKRVIFASSNHVIGFYKQNETIDAHSPRRPDSYYGLSKSYGEDMASFYFDRYGIETVSIRIGSSFPEPQNRRMMSTWLSFDDLTRLLERALYTPDVGHTVVYGVSDNKTVWWDNRFASKLDYAPKDSSEVFRAKVDAQPMPADDDPAMVYQGGAFVASGPFGDK
notes: as for B1
Work on B2 yielded a Km (purified protein [2]) of 200 ± 30 µM, a kcat (purified protein [2]) of 215 ± 12 s⁻¹ and a kcat/Km (purified protein [2]) of 1.26e+06 M⁻¹ s⁻¹.
